{
  "source": "patent US10844023B2",
  "about": "(Washington University, priority 2017, dated 2020)",
  "system": "Mfn2 null MEFs",
  "test": "Mitochondrial elongation (aspect ratio) fusogenicity assay",
  "assay_type": "cell-based, mouse",
  "parameters": "% long compare to B: dose or concentration left out as unconfirmed",
  "settings": "for % long compare to B: mitochondrial elongation relative to Cpd B (B01 = 100), compound overnight as printed (FIG. 48); for % long compare to B / Aspect ratio (MEAN ± SEM): Mfn2 null MEFs; for Aspect ratio (MEAN ± SEM): overnight, treatment with 1 μM compound (footnote); for Fusogenicity Rank: rank order of aspect ratio among 44 soluble library compounds",
  "note": "Entries after “also recorded” stand apart in the source; their conditions may differ.",
  "data": [
    {"smiles": "O=C(NCCSCc1ccsc1)C1CC2CCCC(C1)C2=O", "note": "(stereo not shown) [B11, 9-oxo-N-(2-{[(thiophen-3-yl)methyl]sulfanyl}-ethyl)bicyclo[3.3.1]-nonane-3-carboxamide]", "values": [
      {"measurement": "% long compare to B", "result": 23, "unit": "%"}
    ]},
    {"smiles": "Cc1ccc(-n2c(SC(C)C(=O)Nc3ccnn3C(C)C)nnc2N2CCOCC2)cc1", "note": "(stereo not shown) [C01, 2-{[4-(4-methylphenyl)-5-(morpholin-4-yl)-4H-1,2,4-triazol-3-yl]sulfanyl}-N-[1-(propan-2-yl)-1H-pyrazol-5-yl]propanamide]", "values": [
      {"measurement": "% long compare to B", "result": 16, "unit": "%"}
    ]},
    {"smiles": "CCCc1noc(C(C)Sc2nc3cc(C)ccc3[nH]2)n1", "note": "(stereo not shown) [C02, 5-methyl-2-{[1-(3-propyl-1,2,4-oxadiazol-5-yl)ethyl]sulfanyl}-1H-1,3-benzodiazole]", "values": [
      {"measurement": "% long compare to B", "result": 14, "unit": "%"}
    ]},
    {"smiles": "COc1ccc(SC(C)C(=O)Nc2cc[nH]n2)cc1", "note": "(stereo not shown) [C03, 2-[(4-methoxyphenyl)sulfa-nyl]-N-(1H-pyrazol-3-yl)propanamide]", "values": [
      {"measurement": "% long compare to B", "result": 10, "unit": "%"}
    ]},
    {"smiles": "CCC(C)C1N=C2c3ccccc3N=C(SC(C)C(=O)Nc3cc(OC)cc(OC)c3)N2C1=O", "note": "(stereo not shown) [C04, 2-{[2-(butan-2-yl)-3-oxo-2H,3H-imidazo[1,2-c]quinazolin-5-yl]sulfanyl}-N-(3,5-dimethoxyphenyl)pro-panamide]", "values": [
      {"measurement": "% long compare to B", "result": "−1", "unit": "%"}
    ]},
    {"smiles": "O=C(CSCCc1ccccn1)Nc1ccc(Cl)c(Cl)c1", "note": "[C06, N-(3,4-dichlorophenyl)-2-{[2-(pyridin-2-yl)ethyl]sulfanyl}-acetamide]", "values": [
      {"measurement": "% long compare to B", "result": "−8", "unit": "%"}
    ]},
    {"smiles": "O=C(CSCc1ccc(F)cc1)N1CCc2c([nH]c3ccccc23)C1c1ccc(Cl)cc1", "note": "(stereo not shown) [C07, 1-[1-(4-chlorophenyl)-1H,2H,3H,4H,9H-pyrido[3.4-b]indol-2-yl]-2-{[(4-fluorophenyl)methyl]sulfanyl}ethan-1-one]", "values": [
      {"measurement": "% long compare to B", "result": 29, "unit": "%"}
    ]},
    {"smiles": "Cc1ccc(C(C)C)c(OCCCSCc2nc3ccccc3[nH]2)c1", "note": "[C09, 2-[({3-[5-methyl-2-(propan-2-yl)phenoxy]propyl}-sulfanyl)methyl]-1H-1,3-benzodiazole]", "values": [
      {"measurement": "% long compare to B", "result": "−5", "unit": "%"}
    ]},
    {"smiles": "CC(/N=N/C(=N)SC1CC(=O)N(c2cccc(C(=O)O)c2)C1=O)c1ccccc1", "note": "(stereo not shown) [C10, 3-(2,5-dioxo-3-{[(E)-N-[(1-phenylethyl)imino]car-bamimidoyl]sul-fanyl}pyrrolidin-1-yl)benzoic acid]", "values": [
      {"measurement": "% long compare to B", "result": 0, "unit": "%"}
    ]},
    {"smiles": "Cc1ccc(NC(=O)CC2SC(NC(c3ccc(C(C)C)cc3)c3c(O)[nH]c(=O)[nH]c3=O)=NC2=O)c(C)c1", "note": "(stereo not shown) [C11, N-(2,4-dimethylphenyl)-2-(2-{[(6-hydroxy-2,4-dioxo-1,2,3,4-tetrahydropyrimidin-5-yl)[4-(propan-2-yl)phenyl]methyl]am-ino}-4-oxo-4,5-dihydro-1,3-thiazol-5-yl)acetamide]", "values": [
      {"measurement": "% long compare to B", "result": "−4", "unit": "%"}
    ]},
    {"smiles": "CCOc1ccccc1NC(=O)CSCc1cc(=O)c2ccc(C)c(C)c2[nH]1", "note": "[D01, 2-{[(7,8-dimethyl-4-oxo-1,4-dihydroquinolin-2-yl)methyl]sulfanyl}-N-(2-ethoxyphenyl)acetamide]", "values": [
      {"measurement": "% long compare to B", "result": 9, "unit": "%"}
    ]},
    {"smiles": "Cc1ccc(C(=O)C(C)Sc2nnc3c(=O)n(-c4ccc(C)c(C)c4)ccn23)cc1C", "note": "(stereo not shown) [D02, 7-(3,4-dimethylphenyl)-3-{[1-(3,4-dimethylphenyl)-1-oxopropan-2-yl]sulfanyl}-7H,8H-[1,2,4]triazolo[4,3-a]pyrazin-8-one]", "values": [
      {"measurement": "% long compare to B", "result": 13, "unit": "%"}
    ]},
    {"smiles": "O=C(CSCC(=O)N1CCCc2ccccc21)Nc1ccccc1", "note": "[D03, 2-{[2-oxo-2-(1,2,3,4-tetrahydroquinolin-1-yl)ethyl]sulfanyl}-N-phenylacetamide]", "values": [
      {"measurement": "% long compare to B", "result": "−17", "unit": "%"}
    ]},
    {"smiles": "CCOC(=O)c1sc(NC(=O)C(CC)Sc2nnc3c(n2)[nH]c2ccccc23)nc1C", "note": "(stereo not shown) [D04, ethyl 4-methyl-2-(2-{5H-[1,2,4]triazino[5,6-b]indol-3-ylsulfanyl}butanamido)-1,3-thiazole-5-carboxylate]", "values": [
      {"measurement": "% long compare to B", "result": 24, "unit": "%"}
    ]},
    {"smiles": "COc1ccc2c(c1)C1(SCCN1C(=O)c1ccccc1C)C(=O)N2Cc1cccc(C(F)(F)F)c1", "note": "(stereo not shown) [D05, 5-methoxy-3′-(2-methylbenzoyl)-1-{[3-(trifluoromethyl)-phenyl]methyl}-1,2-dihydrospiro[indole-3,2′-[1,3]thiazolidine]-2-one]", "values": [
      {"measurement": "% long compare to B", "result": 4, "unit": "%"}
    ]},
    {"smiles": "O=C(NCCSCc1cccc(Cl)c1)C1CCCCn2nnnc21", "note": "(stereo not shown) [D07, N-(2-{[(3-chlorophenyl)methyl]-sulfanyl}ethyl)-5H,6H,7H,8H,9H-[1,2,3,4]tetrazolo[1,5-a]azepine-9-carboxamide]", "values": [
      {"measurement": "% long compare to B", "result": "−6", "unit": "%"}
    ]},
    {"smiles": "COc1ccc(OCc2nnc(SC(C)C(=O)Nc3sc4c(c3C(N)=O)CCC4)n2C)cc1", "note": "(stereo not shown) [D8, 2-[2-({5-[(4-methoxyphenoxy)-methyl]-4-methyl-4H-1,2,4-triazol-3-yl}sulfanyl)propana-mido]-4H,5H,6H-cyclopenta[b)thiophene-3-carboxamide]", "values": [
      {"measurement": "% long compare to B", "result": "−1", "unit": "%"}
    ]},
    {"smiles": "Cc1cc(C)n2nc(C(=O)N3C[C@@H]4CCN(Cc5nccn5C)[C@@H]4C3)cc2n1", "note": "[D08, 2-{[(3aS,6aS)-5-{5,7-dimethylpyrazolo[1,5-a]pyrimidine-2-carbonyl}-octahydropyrrolo[3,4-b]pyrrol-1-yl]methyl}-1-methyl-1H-imidazole]", "values": [
      {"measurement": "% long compare to B", "result": 114, "unit": "%"}
    ]},
    {"smiles": "O=C1CC(SCCc2nc3ccccc3[nH]2)C(=O)N1c1cccc(F)c1", "note": "(stereo not shown) [D09, 3-{[2-(1H-1,3-benzodiazol-2-yl)ethyl]sulfanyl}-1-(3-fluorophenyl)pyrro-lidine-2,5-dione]", "values": [
      {"measurement": "% long compare to B", "result": 73, "unit": "%"}
    ]},
    {"smiles": "O=C1CC(SCCc2nc3ccccc3[nH]2)C(=O)N1c1cccc(F)c1", "note": "(stereo not shown) [D9, 3-{[2-(1H-1,3-benzodiazol-2-yl)ethyl]sulfanyl}-1-(3-fluorophenyl)pyrro-lidine-2,5-dione]", "values": [
      {"measurement": "Fusogenic activity", "setting": "mitochondrial elongation / fusion", "result": "failed validation in the secondary screen; also recorded: showed no true fusogenic activity"}
    ]},
    {"smiles": "Cc1ccc(SC2CCN(Cc3cc4n(n3)CCNC4)CC2)cc1", "note": "[D10, 4-[(4-methylphenyl)sulfanyl]-1-({4H,5H,6H,7H-pyrazolo[1,5-a]pyrazin-2-yl}methyl)piperidine]", "values": [
      {"measurement": "% long compare to B", "result": "−7", "unit": "%"}
    ]},
    {"smiles": "Cc1nc[nH]c1CSCCNC(=O)C1CCN(C(=O)C2CCC2)CC1", "note": "[D11, 1-cyclobutanecarbonyl-N-(2-{[(4-methyl-1H-imidazol-5-yl)methyl]sulfanyl}-ethyl)piperidine-4-carboxamide]", "values": [
      {"measurement": "% long compare to B", "result": "−8", "unit": "%"}
    ]},
    {"smiles": "Cc1ccc(N2C[C@@H]3CC[C@H](C2)N(Cc2ccccn2)C3=O)nn1", "note": "[D12, (1S,5R)-3-(6-methylpyridazin-3-yl)-6-[(pyridin-2-yl)methyl)-3,6-diazabicyclo[3.2.2] nonan-7-one]", "values": [
      {"measurement": "% long compare to B", "result": "−4", "unit": "%"}
    ]},
    {"smiles": "CC(C)C1=CC2C(=O)NC(CSCC(=O)NCc3ccccn3)=NC2S1", "note": "(stereo not shown) [E02, 2-({[4-oxo-6-(propan-2-yl)-3H,4H,4aH,7aH-thieno[2,3-d]pyrimidin-2-yl]methyl}sulfanyl)-N-[(pyridin-2-yl)methyl]acetamide]", "values": [
      {"measurement": "% long compare to B", "result": 11, "unit": "%"}
    ]},
    {"smiles": "Cc1nc[nH]c1CSCCn1cnc2cn(C)nc2c1=O", "note": "[E03, 2-methyl-6-(2-{[(4-methyl-1H-imidazol-5-yl)methyl]sulfanyl}-ethyl)-2H,6H,7H-pyrazolo[4,3-d]pyrimidin-7-one]", "values": [
      {"measurement": "% long compare to B", "result": "−10", "unit": "%"}
    ]},
    {"smiles": "CCC(C)NC(=O)c1ccccc1NC(=O)C(C)Sc1ccc(C)cc1", "note": "(stereo not shown) [E04, N-(butan-2-yl)-2-{2-[(4-methyl-phenyl)sulfanyl]pro-panamido}benzamide]", "values": [
      {"measurement": "% long compare to B", "result": 1, "unit": "%"}
    ]},
    {"smiles": "O=C(NCCSCc1ccccc1)C1CCCCO1", "note": "(stereo not shown) [E05, N-[2-(benzyl-sulfanyl)ethyl]oxane-2-carboxamide]", "values": [
      {"measurement": "% long compare to B", "result": 1, "unit": "%"}
    ]},
    {"smiles": "Cc1nnc(SCCCNC(=O)c2n[nH]c3c2CN(C)CC3)s1", "note": "[E06, 5-methyl-N-{3-[(5-methyl-1,3,4-thiadiazol-2-yl)sulfanyl]propyl}-1H,4H,5H,6H,7H-pyrazolo[4,3-c]pyridine-3-carboxamide]", "values": [
      {"measurement": "% long compare to B", "result": "−3", "unit": "%"}
    ]},
    {"smiles": "c1ccc(CSCCc2nc(C3CCOC3)no2)cc1", "note": "(stereo not shown) [E07, 5-[2-(benzylsulfanyl)ethyl]-3-(oxolan-3-yl)-1,2,4-oxadiazole]", "values": [
      {"measurement": "% long compare to B", "result": 4, "unit": "%"}
    ]},
    {"smiles": "CC(c1cccc([N+](=O)[O-])c1)N(C)CC(=O)NCCSCc1ccccc1C#N", "note": "(stereo not shown) [N-(2-{[(2-cyanophenyl)methyl]sulfanyl}ethyl)-2-{methyl[1-(3-nitrophenyl)ethyl]amino}acetamide]", "values": [
      {"measurement": "Aspect ratio (MEAN ± SEM)", "result": "4.0 ± 0.5"},
      {"measurement": "Fusogenicity Rank", "result": 16}
    ]},
    {"smiles": "Cc1cccc(NC(=O)CSCC(=O)N(Cc2ccc(N(C)C)cc2)C(C)C)c1", "note": "[N-{[4-(dimethylamino)phenyl]methyl}-2-({[(3-methylphenyl)carbamoyl]methyl}sulfanyl)-N-(propan-2-yl)acetamide]", "values": [
      {"measurement": "Aspect ratio (MEAN ± SEM)", "result": "4.6 ± 0.2"},
      {"measurement": "Fusogenicity Rank", "result": 12}
    ]},
    {"smiles": "Cc1cc(C)n2nc(C(=O)N3C[C@@H]4CCN(Cc5nccn5C)[C@@H]4C3)cc2n1", "note": "[drawing 198, 2-{[(3aS,6aS)-5-{5,7-dimethylpyrazolo[1,5-a]pyrimidine-2-carbonyl}-octahydropyrrolo[3,4-b]pyrrol-1-yl]methyl}-1-methyl-1H-imidazole]", "values": [
      {"measurement": "Aspect ratio (MEAN ± SEM)", "result": "9.0 ± 3.1"},
      {"measurement": "Fusogenicity Rank", "result": 1}
    ]},
    {"smiles": "O=C1CC(SCCc2nc3ccccc3[nH]2)C(=O)N1c1cccc(F)c1", "note": "(stereo not shown) [drawing 199, 3-{[2-(1H-1,3-benzodiazol-2-yl)ethyl]sulfanyl}-1-(3-fluorophenyl)pyrrolidine-2,5-dione]", "values": [
      {"measurement": "Aspect ratio (MEAN ± SEM)", "result": "6.9 ± 0.8"},
      {"measurement": "Fusogenicity Rank", "result": 3}
    ]},
    {"smiles": "Cc1ccc(C(C)C)c(OCCCSCc2nc3ccccc3[nH]2)c1", "note": "[drawing 200, 2-[({3-[5-methyl-2-(propan-2-yl)phenoxy]propyl}sulfanyl)methyl]-1H-1,3-benzodiazole]", "values": [
      {"measurement": "Aspect ratio (MEAN ± SEM)", "result": "3.0 ± 0.4"},
      {"measurement": "Fusogenicity Rank", "result": 37}
    ]},
    {"smiles": "COc1ccc(SC(C)C(=O)Nc2cc[nH]n2)cc1", "note": "(stereo not shown) [drawing 201, 2-[(4-methoxyphenyl)sulfanyl]-N-(1H-pyrazol-3-yl)propanamide]", "values": [
      {"measurement": "Aspect ratio (MEAN ± SEM)", "result": "3.8 ± 0.4"},
      {"measurement": "Fusogenicity Rank", "result": 22}
    ]},
    {"smiles": "O=C(CSCc1ccc(F)cc1)N1CCc2c([nH]c3ccccc23)C1c1ccc(Cl)cc1", "note": "(stereo not shown) [drawing 202, 1-[1-(4-chlorophenyl)-1H,2H,3H,4H,9H-pyrido[3,4-b]indol-2-yl]-2-{[(4-fluorophenyl)methyl]sulfanyl}ethan-1-one]", "values": [
      {"measurement": "Aspect ratio (MEAN ± SEM)", "result": "4.7 ± 0.9"},
      {"measurement": "Fusogenicity Rank", "result": 11}
    ]}
  ]
}
